These results are taken from publication PMC9586926, “An efflux-susceptible antibiotic-adjuvant with systemic efficacy against mouse infections” (Scientific Reports, 2022).

Test [1] concerns E. coli 25922. Briefly: Outer membrane permeabilization, NPN fluorescence. The class given is cell-based, Escherichia coli. How it is done:
Lipopeptides ability to permeabilize the OM was evaluated using fluorescent measurements of N-phenyl-1-naphthylamine (NPN)[67]. 200 µl of an over-night culture were diluted into 10 ml of fresh LB medium and incubated at 37 °C with shaking until reaching O.D.600 nm = 0.5. The culture was then centrifuged at 10,000 RCF for 3 min, the supernatant aspirated, and the pellet resuspended in equal volume of 5 mM HEPES containing 5 mM glucose (pH = 7.2). This suspension was then mixed with NPN (5 mM in acetone) to reach a final NPN concentration of 10 µM. Then, 190 µl of this mixture were dispensed into black microtiter plates, mixed with 10 µl of HEPES containing serial twofold dilutions of lipopeptides and fluorescence (excitation: 360 nm; emission: 460 nm) was recorded immediately for up to 10 min at 37 °C with shaking[29] (BioTek Instruments Synergy HT; Winooski, VT, USA). In a modified version of this assay, in which efflux was inhibited, bacteria (similarly prepared) were incubated with the lipopeptides in presence or absence of 100 µM CCCP for 5 min. Samples were then twice centrifuged at 10,000 RCF for 3 min, the supernatant aspirated, and the pellet resuspended in equal volume of 5 mM HEPES containing 20 mM glucose (pH = 7.2), so as to re-energize the efflux machinery. NPN was then added (final concentration of 10 µM) and fluorescence was recorded immediately thereafter.

The subject of another test is A. baumannii. In words: MIC, broth microdilution. The class given is cell-based, Acinetobacter baumannii. The conditions noted are these: broth microdilution in LB, 18–24 h, 37 °C; n = 1 strain. The text has this: (§1) Bacteria used in this study consisted of standard American Type Culture Collection (ATCC; Biological Industries, Beit Haemek, Israel) strains, clinically isolated (CI; Sourasky Medical Center, Tel Aviv, Israel) strains, as well as isogenic mutant strains. Gram-negative bacteria included Acinetobacter baumannii ATCC 19606; Escherichia coli ATCC 25922, 35218, CFT073, CI 14384, 16327, and the isogenic pair Ag100 (wild-type) and its efflux deficient mutant Ag100a (ΔacrAB); Klebsiella pneumoniae CI 1287, 224; Pseudomonas aeruginosa ATCC 27853, CI 1278, 8634; Salmonella enterica serovar Typhimurium ATCC 14028 (wild-type) and its isogenic efflux deficient mutant ΔacrAB. Bacteria were grown in Luria–Bertani broth (LB; 5 g/l NaCl, 5 g/l yeast extract, 10 g/l tryptone; pH = 7.0) at 37 °C with shaking. Over-night cultures were diluted 10-folds into fresh growth-medium and incubated at 37 °C with shaking until reaching mid-logarithmic phase. Then, bacterial concentrations were adjusted using O.D.600 nm measurements, and bacteria were subjected to the experimental procedures listed herein.
(§2) MIC was determined according to the broth microdilution method: antimicrobials were subjected to serial twofold dilutions in LB medium, and incubated with 5 × 10^5 CFU/ml of bacteria (final volume of 200 µl) for 18–24 h at 37 °C. Then, O.D.620 nm was measured (BioTek Instruments Synergy HT; Winooski, VT, USA), and the MIC was defined as the lowest antimicrobial concentration for which no increase in O.D.620 nm was evident, compared to the untreated control.

The test system of the next test is RAW 264.7. In words: Cytotoxicity, Alamar blue. The class given is cell-based, murine. As to conditions: 24 h incubation, read-out: IC50 RAW 264.7 (50% inhibition of cells respiration). How it is done:
Cell lines used in this study included murine RAW 264.7 macrophages and human embryonic kidney HEK-293FT cells (ATCC, Biological Industries, Beit Haemek, Israel). Cells were grown in Dulbecco’s modified eagle medium (DMEM) containing […] glucose, L-glutamine, sodium bicarbonate and sodium pyruvate, supplemented with 10% fetal bovine serum and pen-strep, at 37 °C and 5% CO2.
Lipopeptides cytotoxicity was determined using fluorescent measurements of reduced resazurin. 2 × 10^4 cells were first cultured in 96-well plates over-night (final volume of 100 µl) at 37 °C and 5% CO2. Then, the medium was removed and cells were incubated for an additional 24 h with serial twofold dilutions of the lipopeptides in growth medium. Then, 10 µl of Alamar blue were added and plates were incubated for 3 h, after which fluorescence (excitation: 530 nm; emission: 590 nm) of the reduced resazurin was recorded (BioTek Instruments Synergy HT; Winooski, VT, USA).

Another test relates to P. aeruginosa. Briefly: MIC, broth microdilution. The class given is cell-based, Pseudomonas aeruginosa. The conditions noted are these: broth microdilution in LB, 18–24 h, 37 °C; n = 3 strains.
Excerpt: as §1, §2

The next test deals with E. coli Ag100a (ΔacrAB). Briefly: MIC, broth microdilution, efflux deficient mutant. The conditions noted are these: E. coli Ag100a (ΔacrAB) versus Ag100. The class given is cell-based, Escherichia coli.
Excerpt: as §1
MIC was determined according to the broth microdilution method: antimicrobials were subjected to serial twofold dilutions in LB medium, and incubated with 5 × 10^5 CFU/ml of bacteria (final volume of 200 µl) for 18–24 h at 37 °C. […]

For test [2], the system named is E. coli 25922. Briefly: Growth / time-kill kinetics. Type of test: cell-based, Escherichia coli. The conditions noted are these: 10 µM C10BBc12B, 1 µg/ml erythromycin or 20 ng/ml rifampin alone. How it is done: Antimicrobials mode of action was determined according to the rate of bacterial killing. Varying concentrations of lipopeptides, antibiotics and combinations thereof were mixed in LB medium with 5 × 10^5 CFU/ml of bacteria (final volume of 1 ml) and incubated at 37 °C with shaking. At the designated time-points aliquots were serially tenfold diluted in saline, plated on LB agar, and incubated over-night at 37 °C for enumeration.

In another test the test system is E. coli. Briefly: MIC, broth microdilution. Type of test: cell-based, Escherichia coli. As to conditions: broth microdilution in LB, 18–24 h, 37 °C; n = 4 strains; published data in bold (not discernible).
Excerpt: as §1, §2

Where a SMILES comes first, the peptide text is derived from it. [ ]: non-standard residue; d: D form. The star is where a group is joined. 12Ado = NCCCCCCCCCCCC(=O)O; Decanoyl = CCCCCCCCCC(=O)*; Dab = NCC[C@H](N)C(=O)O A value given as a limit tells only on which side of the number the result lay.

In the case of `CCCCCCCCCC(=O)N[C@@H](CCN)C(=O)N[C@@H](CCN)C(=O)NCCCCCCCCCCCC(=O)N[C@@H](CCN)C(N)=O` [C10BBc12B, decanoyl-bis.diaminobutyrate-aminododecanoyl-diaminobutyrate-amide] (Decanoyl-[Dab][Dab][12Ado][Dab]-NH2), the “reduction of NPN fluorescence by 10 mM MgCl2” value in the test with E. coli 25922 [1] is “almost complete”. Also, in the test with A. baumannii, the “MIC A. baumannii (n=1)” value is more than 50 µM. For the same compound, the IC50 in the test on RAW 264.7 is more than 50 µM. In addition, the “MIC P. aeruginosa (n=3)” value in the test with P. aeruginosa is given as not below 50 µM. The “MIC change against efflux deficient mutant versus wild-type” value in the test on E. coli Ag100a (ΔacrAB) is recorded as “eightfold reduction in MIC value”. For the same compound, in the test with E. coli 25922 [2], the “effect on bacterial proliferation, individual agent” value is recorded as “unable to significantly alter bacterial proliferation”. Further, the “MIC E. coli (n=4)” value in the test on E. coli turned out to be 50 µM.
